Reference: publication PMC7178819, “6,7-Dimethoxy-2-phenethyl-1,2,3,4-tetrahydroisoquinoline amides and corresponding ester isosteres as multidrug resistance reversers” (Journal of Enzyme Inhibition and Medicinal Chemistry, 2020)

Columns and labels:
HT29/DX cells = assay: Co-administration assay with doxorubicin (MTT), HT29/DX cells; format: cell-based, human; conditions: compound 10 µM + 10 µM doxorubicin
Method: (§1) The co-administration assay with doxorubicin was performed in MDCK-MDR1, HT29, HT29/DX, A549 and A549/DX cells at 48 h. On day 1, 10,000 cells/well were seeded into 96-well plates in a volume of 100 µL of fresh medium. On day 2, the tested drug was added alone to the cells at different concentrations (ranging from 40 nM to 10 µM). On day 3, the medium was removed and the drug at the same concentrations was added alone and in co-administration with 10 µM doxorubicin to the cells. After the established incubation time with the tested drug, MTT (0.5 mg/mL) was added to each well, and after 3 − 4 h incubation at 37 °C, the supernatant was removed. The formazan crystals were solubilised using 100 µL of DMSO/EtOH (1:1), and the absorbance values at 570 and 630 nm were determined on the microplate reader HTX Synergy (Bio-Tek Instruments).

MDCK-MDR1 cells = assay: Co-administration assay with doxorubicin (MTT), MDCK-MDR1 cells; format: cell-based, canine; conditions: compound 10 µM + 10 µM doxorubicin, MDCK-MDR1
Method: as §1

[1] = system: HT29, A549, HT29/DX and A549/DX cells; assay: Preliminary cytotoxicity of compounds alone in cancer cell lines; format: cell-based, human; conditions: all the tested concentrations, preliminary assays (data not shown)
Method: as §1
The efficacy of the compounds was next tested in cancer cell lines with various levels of P-gp, as the human adenocarcinoma colon cells (HT29) and non-small cell lung cancer cells (A549) displaying low amount of P-gp, and their resistant counterparts HT29/DX and A549/DX, with a high amount of P-gp[53]. In preliminary assays, we verified that 3 and 8 were not cytotoxic at all the tested concentration (data not shown).

A549 cells = assay: Co-administration assay with doxorubicin (MTT), A549 cells; format: cell-based, human; conditions: compound 10 µM + 10 µM doxorubicin
Method: as §1

| SMILES | reduction of cell viability, co-administration with doxorubicin (HT29/DX cells) [%] | cytotoxicity, co-administration with doxorubicin (MDCK-MDR1 cells) | cytotoxicity, compound alone [1] | reduction of cell viability, co-administration with doxorubicin (A549 cells) [%] |
| --- | --- | --- | --- | --- |
| COc1cc2c(cc1OC)CN(CCc1ccc(NC(=O)c3c(OC)c(OC)cc4ccccc34)cc1)CC2 [Compound 8, N-(4–(2-(6,7-dimethoxy-3,4-dihydroisoquinolin-2(1H)-yl)ethyl)phenyl)-2,3-dimethoxy-1-naphthamide] | 29 | around 50% | not cytotoxic | 25 |
| COc1ccc(C(=O)Nc2ccc(CCN3CCc4cc(OC)c(OC)cc4C3)cc2)c(OC)c1 [Compound 3, N-(4–(2-(6,7-dimethoxy-3,4-dihydroisoquinolin-2(1H)-yl)ethyl)phenyl)-2,4-dimethoxybenzamide] | 35 | 77% | not cytotoxic | 25 |
